Laboratory results taken from ChEMBL document CHEMBL1201862, “PubChem BioAssay data set” (2004).
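Five compound concentrations were applied to cells in 96-well plates for 48 hours; endpoints were derived by simple linear interpolation of the resulting dose-response curve. Abbreviation: GI50, concentration required for 50% inhibition of growth.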 Activity calls are given as the source filed them. Rule as the data show it: active = GI50 up to about 1.1 µM and inactive = higher.

Assays:
Experiment in all cases: NCI-60 cell line screen, 48 h
[1] = tested on: OVCAR-8
[2] = tested on: RXF 393
[3] = tested on: HOP-62
[4] = tested on: IGROV-1
[5] = tested on: DMS-114
[6] = tested on: HCT-116
[7] = tested on: SW-620
[8] = tested on: DMS-273
[9] = tested on: SN12C
[10] = tested on: COLO 205
[11] = tested on: ACHN
[12] = tested on: SF-268
[13] = tested on: A498
[14] = tested on: SK-MEL-5
[15] = tested on: OVCAR-3
[16] = tested on: SNB-75
[17] = tested on: 786-0
[18] = tested on: KM12
[19] = tested on: LXFL 529
[20] = tested on: CCRF-CEM
[21] = tested on: SNB-78
[22] = tested on: DLD-1
[23] = tested on: NCI-H522
[24] = tested on: OVCAR-4
[25] = tested on: EKVX
[26] = tested on: MOLT-4
[27] = tested on: UACC-62
[28] = tested on: XF498
[29] = tested on: A549
[30] = tested on: RPMI-8226
[31] = tested on: HOP-92
[32] = tested on: SK-MEL-28
[33] = tested on: CAKI-1
[34] = tested on: Malme-3M
[35] = tested on: NCI-H460
[36] = tested on: SK-OV-3
[37] = tested on: KM-20L2
[38] = tested on: SR
[39] = tested on: HL-60
[40] = tested on: M19-MEL
[41] = tested on: LOX IMVI
[42] = tested on: UACC-257
[43] = tested on: NCI-H226
[44] = tested on: HCT-15
[45] = tested on: HCC 2998
[46] = tested on: HOP-18
[47] = tested on: TK-10
[48] = tested on: SNB-19
[49] = tested on: UO-31
[50] = tested on: HT-29
[51] = tested on: OVCAR-5
[52] = tested on: SK-MEL-2
[53] = tested on: K562
[54] = tested on: SF-295
[55] = tested on: U-251
[56] = tested on: NCI-H23
[57] = tested on: M14
[58] = tested on: NCI/ADR-RES
[59] = tested on: SF-539
[60] = tested on: BT-549
[61] = tested on: MDA-MB-435
[62] = tested on: MCF7
[63] = tested on: MDA-MB-231
[64] = tested on: Hs-578T
[65] = tested on: T47D
[66] = tested on: DU-145
[67] = tested on: PC-3

With `CCOc1ccccc1NC(=O)CCC(=O)OC` the GI50 [1] was > 100 µM (inactive), the GI50 [2] was > 100 µM (inactive) and the GI50 [3] was > 100 µM (inactive). The GI50 [4] was > 100 µM (inactive), the GI50 [5] was > 61.1 µM (inactive) and the GI50 [6] was > 100 µM (inactive). The GI50 [7] was > 42.1 µM (inactive), the GI50 [8] was > 100 µM (inactive) and the GI50 [9] was > 100 µM (inactive). The GI50 [10] was > 58.2 µM (inactive), the GI50 [11] was > 100 µM (inactive) and the GI50 [12] was > 100 µM (inactive). The GI50 [13] was > 100 µM (inactive), the GI50 [14] was > 100 µM (inactive) and the GI50 [15] was > 100 µM (inactive). The GI50 [16] was > 100 µM (inactive), the GI50 [17] was > 100 µM (inactive) and the GI50 [18] was > 100 µM (inactive). For the same compound, the GI50 [19] was > 100 µM (inactive), the GI50 [20] was > 45.6 µM (inactive) and the GI50 [21] was > 100 µM (inactive). The GI50 [22] was > 83 µM (inactive), the GI50 [23] was > 100 µM (inactive) and the GI50 [24] was > 100 µM (inactive). The GI50 [25] was > 100 µM (inactive), the GI50 [26] was > 100 µM (inactive) and the GI50 [27] was > 100 µM (inactive). The GI50 [28] was > 100 µM (inactive), the GI50 [29] was > 100 µM (inactive) and the GI50 [30] was > 48.3 µM (inactive). For the same compound, the GI50 [31] was > 100 µM (inactive), the GI50 [32] was > 100 µM (inactive) and the GI50 [33] was > 100 µM (inactive). For the same compound, the GI50 [34] was > 100 µM (inactive), the GI50 [35] was > 100 µM (inactive) and the GI50 [36] was > 100 µM (inactive). The GI50 [37] was > 100 µM (inactive), the GI50 [38] was > 47 µM (inactive) and the GI50 [39] was > 51.8 µM (inactive). The GI50 [40] was > 100 µM (inactive), the GI50 [41] was > 31.6 µM (inactive) and the GI50 [42] was > 100 µM (inactive). The GI50 [43] was > 100 µM (inactive), the GI50 [44] was > 74.5 µM and the GI50 [45] was > 100 µM (inactive). The GI50 [46] was > 100 µM (inactive), the GI50 [47] was > 100 µM (inactive) and the GI50 [48] was > 100 µM (inactive). The GI50 [49] was > 100 µM (inactive), the GI50 [50] was > 100 µM (inactive) and the GI50 [51] was > 100 µM (inactive). For the same compound, the GI50 [52] was > 100 µM (inactive), the GI50 [53] was > 56.2 µM (inactive) and the GI50 [54] was > 100 µM (inactive). The GI50 [55] was > 49.9 µM (inactive), the GI50 [56] was > 100 µM (inactive) and the GI50 [57] was > 100 µM (inactive).
`CC1=C(C(=O)Nc2ccc(Cl)c(C(=O)OC(C)C)c2)SCCO1` was tested, and the GI50 [58] was 66.2 µM (inactive), the GI50 [1] was 81.3 µM (inactive) and the GI50 [2] was 48.1 µM (inactive). The GI50 [3] was > 91.4 µM (inactive), the GI50 [4] was 72.4 µM (inactive) and the GI50 [6] was > 77.4 µM (inactive). The GI50 [7] was 74.8 µM (inactive), the GI50 [8] was 55.6 µM (inactive) and the GI50 [59] was > 89.3 µM (inactive). For the same compound, the GI50 [9] was > 100 µM (inactive), the GI50 [10] was 51.9 µM (inactive) and the GI50 [60] was > 100 µM (inactive). For the same compound, the GI50 [11] was > 100 µM (inactive), the GI50 [12] was 30.6 µM (inactive) and the GI50 [13] was 53.5 µM (inactive). The GI50 [14] was 50.1 µM (inactive), the GI50 [15] was 86.1 µM (inactive) and the GI50 [16] was 75.9 µM (inactive). For the same compound, the GI50 [61] was > 100 µM (inactive), the GI50 [62] was 55.3 µM (inactive) and the GI50 [17] was > 100 µM (inactive). The GI50 [18] was 80.9 µM (inactive), the GI50 [20] was 48.6 µM (inactive) and the GI50 [21] was 99.5 µM (inactive). For the same compound, the GI50 [22] was 74 µM (inactive), the GI50 [63] was > 100 µM (inactive) and the GI50 [23] was 36.4 µM (inactive). For the same compound, the GI50 [24] was 56.8 µM (inactive), the GI50 [64] was 17.7 µM (inactive) and the GI50 [25] was 71.4 µM (inactive). For the same compound, the GI50 [26] was 40.4 µM (inactive), the GI50 [65] was 24.2 µM (inactive) and the GI50 [66] was > 100 µM (inactive). The GI50 [27] was 67.6 µM (inactive), the GI50 [28] was 62.4 µM (inactive) and the GI50 [29] was 50.1 µM (inactive). The GI50 [30] was 23.3 µM (inactive), the GI50 [31] was 66.2 µM (inactive) and the GI50 [32] was 74.6 µM (inactive). For the same compound, the GI50 [33] was > 100 µM (inactive), the GI50 [67] was > 100 µM (inactive) and the GI50 [34] was 47.3 µM (inactive). The GI50 [35] was 66.2 µM (inactive), the GI50 [36] was > 81.1 µM (inactive) and the GI50 [37] was 33.9 µM (inactive). For the same compound, the GI50 [39] was 13.8 µM (inactive), the GI50 [40] was 26.6 µM (inactive) and the GI50 [41] was 51.6 µM (inactive). For the same compound, the GI50 [42] was 62.1 µM (inactive), the GI50 [43] was 75.3 µM (inactive) and the GI50 [44] was 69 µM. For the same compound, the GI50 [45] was 54.8 µM (inactive), the GI50 [46] was 81.3 µM (inactive) and the GI50 [47] was > 100 µM (inactive). For the same compound, the GI50 [48] was 70.5 µM (inactive), the GI50 [49] was 36.9 µM (inactive) and the GI50 [50] was 25.7 µM (inactive). The GI50 [51] was 47.9 µM (inactive), the GI50 [52] was 68.4 µM (inactive) and the GI50 [53] was 45.6 µM (inactive). For the same compound, the GI50 [54] was 54.7 µM (inactive), the GI50 [55] was 55.7 µM (inactive) and the GI50 [56] was 69.2 µM (inactive). The GI50 [57] was > 100 µM (inactive).
